Results taken from patent US10023561B2, “Fumagillol heterocyclic compounds and methods of making and using same” (Zafgen, Inc., priority 2015, dated 2018).
pEC50, pIC50: −log10 of the molar value. Where “and” joins values, the source holds several entries; their conditions need not be identical. Equal values may be shown once. Where a name gives a salt, the structure may show the parent alone. Read-outs that look alike come from different tables or passages of the source. Values belong to the compound of their own block, whether it stands above or below them.

Legend:
[1] = tested on: Diet Induced Obese (DIO) C57BL/6 mice; assay: 10 day DIO mouse model (body weight, food intake, hematology, blood chemistry); format: in vivo
From the text: The objective of this study design was to investigate the efficacy of disclosed compounds in a 10 day DIO mouse model. Effects on body weight, food intake, hematology and blood chemistry were the primary readouts of this study design. […] Mice were fed Research Diets D12492 (60% Kcal fat, 20% Kcal carbohydrate and 20% protein) and provided water ad libitum. DIO mice were received and housed in the facility for approximately two weeks prior to the start of test article administration. On Day −4 or −3, mice were randomized into study groups based on body weight and body weights were continued to be recorded daily for the duration of the study. Daily food intake was assessed starting on Study Day −2 by weighing of the food with hopper together to avoid loss of food in transfer.
(§1) Compounds were formulated into a 100% DMSO stock (at 9 mg/mL) prior to the start, and further diluted into the target working concentration using the vehicle of 10% DMSO in water. Prior to test article administration, starting on Day −3 a dosing acclimation occurred with all animals receiving a subcutaneous injection of vehicle (10% DMSO) only for 3 days. Starting on Day 1, test compounds or vehicle were administered based on individual body weight, subcutaneously, once a day for 10 days. All mice were sacrificed on Day 11, 24 hours following the final dosing on Day 10. After sacrifice, whole blood was collected and analyzed for hematology and blood chemistry parameters.
(§2) Compounds were tested vs. vehicle at various doses (1.0, 0.5, 0.3, 0.1, 0.03 mpk sc (mg per kg animal weight delivered subcutaneously), and the results are shown in Table 2 below.

recombinant human MetAP2 = recombinant human MetAP2 (Homo sapiens (Human), UniProt P50579); assay: recombinant human MetAP2 enzyme inhibition assay (MAS peptide / amino acid oxidase / Amplex UltraRed); format: biochemical; conditions: recombinant human MetAP2, 25 minutes at 25° C.
Protocol: Compounds are tested for their capacity to inhibit recombinant human MetAP2 activity using the following assay.
Flag tagged Human recombinant MetAP2 expressed and isolated for use as the enzyme source. 10 mM stock solutions of compounds were prepared in 100% DMSO and further diluted in 100% DMSO required concentration to 1 mM stocks. The stock compound solutions and DMSO vehicle controls were diluted to target final compound concentrations using assay buffer to a final concentration of 50 mM HEPES containing 100 mM NaCl, pH adjusted to 7.5. The MAS peptide was formulated to a 7.5 mM stock in distilled water and prior to use further diluted 1:4. […] 40 μl of enzyme was mixed with 100 μl of MnCl2 then further diluted in assay buffer to a final concentration of 16 μg/ml. To test for compound effect on MetAP2 enzyme activity, 5 μl of test compound, 10 μl of MAS substrate/amino acid oxidase mixture, 10 μl of MetAP2 was added to test wells in a 384 well black plate with blank wells containing no enzyme, replaced with 10 μl of assay buffer. All compounds were tested in duplicate on two occasions on the same day.
The plate was sealed with a TopSeal A cover and mixed briefly on an orbital mixer at 900 rpm. The plate was incubated for a further 25 minutes at 25° C. […] At the end of the MetAP2 incubation 25 μl Amplex/HRP mixture per well was added and the plate read plate on a plate reader.

[2] = tested on: Sprague Dawley rats on 45% high fat diet; assay: 11 day rat DIO model (body weight, food intake, hematology, blood chemistries); format: in vivo
From the text: The objective of this study design is to investigate the efficacy of disclosed compounds in an 11 day rat DIO model used to screen compounds for pharmacologic efficacy on endpoints related to obesity and metabolism. Effects on body weight, food intake, hematology and blood chemistries were the primary readouts of this study design. […] Rats were fed Research Diets D12451 (45% High Fat) and provided water ad libitum. Rats were received and housed in the facility for at least two or three weeks prior to start of test article administration. On Day −4 or −3, rats were randomized into study groups based on body weight and body weights were continued to be recorded daily for the duration of the study. Daily food intake was assessed starting on Study Day −2 by weighing the hopper including the food to avoid loss of food in transfer.
as §1, with “for 11” for “for 10”, “All animals” for “All mice”, “11, approximately 2” for “11, 24”, “Day 11.” for “Day 10.”
as §2

[3] = tested on: human fibrosarcoma cell line HT-1080; assay: HT-1080 cell proliferation assay (CellTiter-Glo, 72 hours); format: cell-based; conditions: for EC50: HT-1080, 72 h, read-out: HT-1080 EC50 (nM); for pEC50: HT-1080 cells, 72 hours incubation, CellTiter-Glo, read-out: HT-1080 EC50

recombinant human MetAP2, sequence (P50579 whole entry): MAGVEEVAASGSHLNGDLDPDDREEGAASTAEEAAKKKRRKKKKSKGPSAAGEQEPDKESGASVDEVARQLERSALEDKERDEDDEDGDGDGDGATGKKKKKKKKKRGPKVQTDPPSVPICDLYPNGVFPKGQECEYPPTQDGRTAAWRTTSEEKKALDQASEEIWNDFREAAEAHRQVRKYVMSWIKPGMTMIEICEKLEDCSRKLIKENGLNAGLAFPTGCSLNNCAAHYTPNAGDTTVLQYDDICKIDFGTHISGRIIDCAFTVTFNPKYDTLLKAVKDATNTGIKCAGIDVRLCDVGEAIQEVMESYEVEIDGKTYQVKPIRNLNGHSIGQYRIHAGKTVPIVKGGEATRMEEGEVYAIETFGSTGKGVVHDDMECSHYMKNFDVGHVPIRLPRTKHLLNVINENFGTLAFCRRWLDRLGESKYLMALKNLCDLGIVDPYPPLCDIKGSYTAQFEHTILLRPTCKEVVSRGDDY

pIC50 (recombinant human MetAP2): > 7.30
SMILES: CO[C@@H]1[C@H](OC(=O)N2CC(CCCN3CCCC3)C2)CC[C@]2(CO2)[C@H]1[C@@]1(C)O[C@@H]1CC=C(C)C [Example 59, (3R,4S,5S,6R)-5-methoxy-4-((2R,3R)-2-methyl-3-(3-methylbut-2-enyl)oxiran-2-yl)-1-oxaspiro[2.5]octan-6-yl 3-(3-(pyrrolidin-1-yl)propyl)azetidine-1-carboxylate formate]
body weight loss vs vehicle at 0.3 mg/kg ([1]; 240 h, DIO mouse, 0.3 mpk sc once a day, 10 days): 9.1%

SMILES: CO[C@@H]1[C@H](OC(=O)N2CC(CCN3CCC(O)CC3)C2)CC[C@]2(CO2)[C@H]1[C@@]1(C)O[C@@H]1CC=C(C)C [Example 7, (3R,4S,5S,6R)-5-methoxy-4-((2R,3R)-2-methyl-3-(3-methylbut-2-en-1-yl)oxiran-2-yl)-1-oxaspiro[2.5]octan-6-yl 3-(2-(4-hydroxypiperidin-1-yl)ethyl)azetidine-1-carboxylate]
DIO Mouse 10-day weight loss vs vehicle ([1]; DIO mouse, 0.3 mpk sc once a day, 10 days): 1.8%

SMILES: CCN(CC)CCC1CCN1C(=O)O[C@@H]1CC[C@]2(CO2)[C@@H]([C@@]2(C)O[C@@H]2CC=C(C)C)[C@@H]1OC (stereo partly drawn) [Example 106, (3R,4S,5S,6R)-5-methoxy-4-((2R,3R)-2-methyl-3-(3-methylbut-2-enyl)oxiran-2-yl)-1-oxaspiro[2.5]octan-6-yl 2-(2-(diethylamino)ethyl)azetidine-1-carboxylate]
DIO Rat 11-day weight loss vs vehicle ([2]; DIO rat, 0.5 mpk sc once a day, 11 days): 4.82%
DIO Mouse 10-day weight loss vs vehicle ([1]; DIO mouse, 0.1 mpk sc once a day, 10 days): 2%

SMILES: CO[C@@H]1[C@H](OC(=O)N2CC(CCN3CC(C)(O)C3)C2)CC[C@]2(CO2)[C@H]1[C@@]1(C)O[C@@H]1CC=C(C)C [Example 9, (3R,4S,5S,6R)-5-methoxy-4-((2R,3R)-2-methyl-3-(3-methylbut-2-enyl)oxiran-2-yl)-1-oxaspiro[2.5]octan-6-yl 3-(2-(3-hydroxy-3-methylazetidin-1-yl)ethyl)azetidine-1-carboxylate formate]
DIO Rat 11-day weight loss vs vehicle ([2]; rat, in vivo, formate): 5.5% and 4.8%
EC50 [3]: < 0.3 nM
DIO Mouse 10-day weight loss vs vehicle ([1]; mouse, in vivo): 7.4%

pEC50 [3]: > 9.52
SMILES: CCN(CC)CCC1CN(C(=O)O[C@@H]2CC[C@]3(CO3)[C@@H]([C@@]3(C)O[C@@H]3CC=C(C)C)[C@@H]2OC)C1 [Example 103, (3R,4S,5S,6R)-5-methoxy-4-((2R,3R)-2-methyl-3-(3-methylbut-2-enyl)oxiran-2-yl)-1-oxaspiro[2.5]octan-6-yl 3-(2-(diethylamino)ethyl)azetidine-1-carboxylate]

pEC50 [3]: > 9.52
SMILES: CNC(=O)OC1CN(C(=O)O[C@@H]2CC[C@]3(CO3)[C@@H]([C@@]3(C)O[C@@H]3CC=C(C)C)[C@@H]2OC)C1 [Example 74, (3R,4S,5S,6R)-5-methoxy-4-((2R,3R)-2-methyl-3-(3-methylbut-2-enyl)oxiran-2-yl)-1-oxaspiro[2.5]octan-6-yl 3-(methylcarbamoyloxy)azetidine-1-carboxylate]

SMILES: CCN(CC)CCNC(=O)CCC1CN(C(=O)O[C@@H]2CC[C@]3(CO3)[C@@H]([C@@]3(C)O[C@@H]3CC=C(C)C)[C@@H]2OC)C1 [Example 88, (3R,4S,5S,6R)-5-methoxy-4-((2R,3R)-2-methyl-3-(3-methylbut-2-enyl)oxiran-2-yl)-1-oxaspiro[2.5]octan-6-yl 3-(3-(2-(diethylamino)ethylamino)-3-oxopropyl)azetidine-1-carboxylate formate]
DIO Rat 11-day weight loss vs vehicle ([2]; rat, in vivo): 4.4%
EC50 [3]: 0.3 to 1.3 nM
DIO Mouse 10-day weight loss vs vehicle ([1]; mouse, in vivo): 9%

SMILES: CO[C@@H]1[C@H](OC(=O)N2CC(CCN3CC4C(C3)C4(F)F)C2)CC[C@]2(CO2)[C@H]1[C@@]1(C)O[C@@H]1CC=C(C)C (stereo partly drawn) [Example 22, (3R,4S,5S,6R)-5-methoxy-4-((2R,3R)-2-methyl-3-(3-methylbut-2-enyl)oxiran-2-yl)-1-oxaspiro[2.5]octan-6-yl 3-(2-(6,6-difluoro-3-azabicyclo[3.1.0]hexan-3-yl)ethyl)azetidine-1-carboxylate formate]
EC50 [3]: 0.3 to 1.3 nM
DIO Mouse 10-day weight loss vs vehicle ([1]; mouse, in vivo): 14%

SMILES: CO[C@@H]1[C@H](OC(=O)N2CC(CCN3CC(O)C3)C2)CC[C@]2(CO2)[C@H]1[C@@]1(C)O[C@@H]1CC=C(C)C [Example 6, (3R,4S,5S,6R)-5-methoxy-4-((2R,3R)-2-methyl-3-(3-methylbut-2-enyl)oxiran-2-yl)-1-oxaspiro[2.5]octan-6-yl 3-(2-(3-hydroxyazetidin-1-yl)ethyl)azetidine-1-carboxylate formate]
DIO Rat 11-day weight loss vs vehicle ([2]; rat, in vivo, formate): 0.8% and 4.6%
EC50 [3]: < 0.3 nM
DIO Mouse 10-day weight loss vs vehicle ([1]; mouse, in vivo): 11.8%
